Measurements as given in ChEMBL document CHEMBL1136292, “Synthesis and AMPA receptor antagonistic activity of a novel class of quinoxalinecarboxylic acid with a substituted phenyl group at the C-7 position” (Bioorg Med Chem Lett, 2003).
Active and inactive are the calls of the source. The rule behind the calls is not given here.

Tests used:
[1] = biological target: Glutamate receptor ionotropic, AMPA (Rattus norvegicus, UniProt P19490+P19491+P19492+P19493); assay: biochemical
Description: Binding affinity for ionotropic glutamate receptor AMPA using [3H]AMPA as radioligand, bound to synaptic membranes prepared from rat cerebral cortex

Rattus norvegicus [2] = assay: Neuroprotective effect in rat after iv administration at a dose of 30 mg/kg/h for 4 h; format: functional
Rattus norvegicus [3] = organism: Rattus norvegicus; assay: In vitro inhibitory effect on AMPA-induced DC potential in rat cortical slices; active; format: functional
Rattus norvegicus [4] = assay: Neuroprotective effect in rat after iv administration at a dose of 15 mg/kg/h for 4 h; format: functional
Rattus norvegicus [5] = assay: Neuroprotective effect in rat after iv administration at a dose of 5 mg/kg/h for 4 h; format: functional
Rattus norvegicus [6] = assay: Neuroprotective effect in rat after iv administration at a dose of 2.5 mg/kg/h for 4 h; format: functional
Rattus norvegicus [7] = assay: Neuroprotective effect in rat after iv administration at a dose of 20 mg/kg/h for 4 h; format: functional

How did the Ki [1] turn out when O=C(Nc1ccc(Br)cc1)OCc1cn(-c2cc3nc(C(=O)O)c(=O)[nH]c3cc2[N+](=O)[O-])cn1 was run?
The Ki was 0.032 µM.

With Cc1cn(-c2cc3nc(C(=O)O)c(O)nc3cc2[N+](=O)[O-])cn1 as the compound, how does the Ki [1] read?
The Ki was 1.3 µM.

With NS(=O)(=O)c1cccc2c1c([N+](=O)[O-])cc1nc(O)c(O)nc12 [NBQX] as the compound, how does the Activity (Rattus norvegicus [2]) read?
The Activity was 2.3.

How did the Ki [1] turn out when O=C(Nc1ccc(C(=O)O)cc1)OCc1cn(-c2cc3nc(C(=O)O)c(=O)[nH]c3cc2[N+](=O)[O-])cn1 was run?
The Ki was 0.022 µM.

With O=C(NCc1ccccc1Br)OCc1cn(-c2cc3nc(C(=O)O)c(O)nc3cc2[N+](=O)[O-])cn1 as the compound, how does the Ki [1] read?
Its Ki is 0.029 µM.

How did the Ki [1] turn out when O=C(Nc1cccc(Br)c1)OCc1cn(-c2cc3nc(C(=O)O)c(O)nc3cc2[N+](=O)[O-])cn1 was run?
Its Ki is 0.016 µM.

With O=C(O)c1nc2cc(N3CCC(O)CC3)c([N+](=O)[O-])cc2nc1O as the compound, how does the Ki [1] read?
Its Ki is 2.5 µM.

For O=C(O)c1nc2cc(N3CCCCC3)c([N+](=O)[O-])cc2nc1O, which Ki [1] is on record?
Its Ki is 3.8 µM.

Which Ki [1] does the source give for Cc1ccccc1NC(=O)OCc1cn(-c2cc3nc(C(=O)O)c(O)nc3cc2[N+](=O)[O-])cn1 here?
The Ki was 0.016 µM.

How did the “activity call (active/inactive)” value (Rattus norvegicus [3]) turn out when O=c1[nH]c2cc(-n3ccnc3)c([N+](=O)[O-])cc2[nH]c1=O [YM-90K] was run?
Its value is “Active”.

What about the Ki [1] of the same compound?
Its Ki is 0.1 µM.

And the Activity (Rattus norvegicus [4])?
The Activity was 2.8.

How did the Ki [1] turn out when O=C(NCc1ccccc1)OCc1cn(-c2cc3nc(C(=O)O)c(=O)[nH]c3cc2[N+](=O)[O-])cn1 was run?
The Ki was 0.067 µM.

Which Ki [1] does the source give for Cc1ccc(NC(=O)OCc2cn(-c3cc4nc(C(=O)O)c(O)nc4cc3[N+](=O)[O-])cn2)cc1 here?
Its Ki is 0.03 µM.

How did the Ki [1] turn out when O=C(Nc1ccccc1C(=O)O)OCc1cn(-c2cc3nc(C(=O)O)c(=O)[nH]c3cc2[N+](=O)[O-])cn1 was run?
Its Ki is > 0.9 µM.

With O=C(O)Cc1cn(-c2cc3nc(C(=O)O)c(O)nc3cc2[N+](=O)[O-])cn1 as the compound, how does the Ki [1] read?
The Ki was 0.53 µM.

O=C(O)c1nc2cc(-n3ccnc3)c([N+](=O)[O-])cc2[nH]c1=O was tested. Which Ki [1] did it give?
The Ki was 0.56 µM.

Which Ki [1] does the source give for O=C(Nc1ccc(Cl)cc1)OCc1cn(-c2cc3nc(C(=O)O)c(O)nc3cc2[N+](=O)[O-])cn1 here?
Its Ki is 0.03 µM.

For O=C(Nc1cccc(C(=O)O)c1)OCc1cn(-c2cc3nc(C(=O)O)c(O)nc3cc2[N+](=O)[O-])cn1, which Activity (Rattus norvegicus [5]) is on record?
Its Activity is 2.3.

And the “activity call (active/inactive)” value (Rattus norvegicus [3])?
Its value is “Active”.

And the Ki [1]?
The Ki was 0.027 µM.

For O=C(O)c1nc2cc(F)c([N+](=O)[O-])cc2nc1O, which Ki [1] is on record?
Its Ki is 2 µM.

With O=C(O)c1nc2cc(N3CCOCC3)c([N+](=O)[O-])cc2nc1O as the compound, how does the Ki [1] read?
The Ki was 2 µM.

For O=C(Nc1ccccc1)OCc1cn(-c2cc3nc(C(=O)O)c(O)nc3cc2[N+](=O)[O-])cn1, which Ki [1] is on record?
Its Ki is 0.086 µM.

With O=C(Nc1ccccc1Br)OCc1cn(-c2cc3nc(C(=O)O)c(O)nc3cc2[N+](=O)[O-])cn1 as the compound, how does the Ki [1] read?
Its Ki is 0.03 µM.

With O=C(Nc1ccc(C(=O)O)cc1)OCCc1cn(-c2cc3nc(C(=O)O)c(=O)[nH]c3cc2[N+](=O)[O-])cn1 as the compound, how does the Ki [1] read?
The Ki was 0.27 µM.

For O=C(O)c1nc2cc(-n3ccc(=O)cc3)c([N+](=O)[O-])cc2nc1O, which Ki [1] is on record?
The Ki was 0.33 µM.

With Cc1nccn1-c1cc2nc(C(=O)O)c(O)nc2cc1[N+](=O)[O-] as the compound, how does the Ki [1] read?
Its Ki is > 10 µM.

For Cc1cccc(NC(=O)OCc2cn(-c3cc4nc(C(=O)O)c(O)nc4cc3[N+](=O)[O-])cn2)c1, which Ki [1] is on record?
Its Ki is 0.022 µM.

O=C(O)Cn1c(=O)c(=O)[nH]c2cc([N+](=O)[O-])c(-n3ccnc3)cc21 [ZONAMPANEL] was tested. Which “activity call (active/inactive)” value (Rattus norvegicus [3]) did it give?
Its value is “Active”.

And the Ki [1]?
Its Ki is 0.062 µM.

And the Activity (Rattus norvegicus [2])?
The Activity was 0.5.

Which Ki [1] does the source give for O=C(Nc1cccc(Cl)c1)OCc1cn(-c2cc3nc(C(=O)O)c(O)nc3cc2[N+](=O)[O-])cn1 here?
Its Ki is 0.018 µM.

With O=C(NCc1ccc(Br)cc1)OCc1cn(-c2cc3nc(C(=O)O)c(O)nc3cc2[N+](=O)[O-])cn1 as the compound, how does the Ki [1] read?
Its Ki is 0.047 µM.

For O=C(Nc1ccccc1Cl)OCc1cn(-c2cc3nc(C(=O)O)c(O)nc3cc2[N+](=O)[O-])cn1, which Ki [1] is on record?
Its Ki is 0.02 µM.

With O=C(NCc1cccc(Br)c1)OCc1cn(-c2cc3nc(C(=O)O)c(O)nc3cc2[N+](=O)[O-])cn1 as the compound, how does the Ki [1] read?
The Ki was 0.1 µM.

With O=C(O)c1nc2cc(-n3cnc(CO)c3)c([N+](=O)[O-])cc2[nH]c1=O as the compound, how does the Ki [1] read?
Its Ki is 2.6 µM.

For O=C(Nc1ccc(C(=O)O)cc1)OCc1cn(-c2cc3nc(C(=O)O)c(O)nc3cc2[N+](=O)[O-])cn1, which Activity (Rattus norvegicus [6]) is on record?
Its Activity is 3.

And the “activity call (active/inactive)” value (Rattus norvegicus [3])?
The value was “Active”.

What does the source list for O=C(O)c1nc2cc(-n3ccnc3)c([N+](=O)[O-])cc2nc1O?
Activity (Rattus norvegicus [7]): 0.2; activity call (active/inactive) (Rattus norvegicus [3]): Active

O=C(Nc1ccccc1)OCc1cn(-c2cc3nc(C(=O)O)c(O)nc3cc2[N+](=O)[O-])ccc1=O was tested. Which Ki [1] did it give?
Its Ki is 0.17 µM.

With CN(C)c1cc2nc(C(=O)O)c(O)nc2cc1[N+](=O)[O-] as the compound, how does the Ki [1] read?
The Ki was 0.91 µM.
